# According to BindingDB's records for doi:10.1016/j.bmc.2012.12.025 (Astellas Pharma, 2013):
# Tests used:
# [1] = target: Diamine oxidase AOC1 (Rattus norvegicus); assay: Inhibition of rat liver DAO using putrescine as substrate after 1 hr by fluorometric assay
# [2] = target: Diamine oxidase AOC1 (Homo sapiens); assay: Inhibition of human DAO expressed in CHO cells using putrescine as substrate after 1 hr by fluorometric assay
smiles,measurement,setting,value
CC(=O)Nc1nc(CCc2ccc(N=C(N)N)cc2)cs1,IC50,[1],75 µM
same,IC50,[2],> 100 µM
